Experimental findings from article PMC12675537, “Molecular basis for multidrug efflux by an anaerobic-associated RND transporter” (Nature Communications, 2025) are described below.

Changes are numbered by the printed parent chain. In names and notes the source's numbering stands.

The target of series [1] is T1, MdtF (Escherichia coli, UniProt P37637).
T1 construct: MdtF-6xHis (C-terminal His tag) in SMALP native-lipid nanodiscs; homotrimer
Briefly: fluorescence polarisation; thermal stabilisation (CD, DSC, nanoDSF). In kind it is binding.

Series [2] concerns the target T2, MdtF (Escherichia coli, UniProt P37637, V610F).
T2 construct: MdtF-6xHis (C-terminal His tag) in SMALP native-lipid nanodiscs; homotrimer
T2 sequence (P37637 1-1037 V610F): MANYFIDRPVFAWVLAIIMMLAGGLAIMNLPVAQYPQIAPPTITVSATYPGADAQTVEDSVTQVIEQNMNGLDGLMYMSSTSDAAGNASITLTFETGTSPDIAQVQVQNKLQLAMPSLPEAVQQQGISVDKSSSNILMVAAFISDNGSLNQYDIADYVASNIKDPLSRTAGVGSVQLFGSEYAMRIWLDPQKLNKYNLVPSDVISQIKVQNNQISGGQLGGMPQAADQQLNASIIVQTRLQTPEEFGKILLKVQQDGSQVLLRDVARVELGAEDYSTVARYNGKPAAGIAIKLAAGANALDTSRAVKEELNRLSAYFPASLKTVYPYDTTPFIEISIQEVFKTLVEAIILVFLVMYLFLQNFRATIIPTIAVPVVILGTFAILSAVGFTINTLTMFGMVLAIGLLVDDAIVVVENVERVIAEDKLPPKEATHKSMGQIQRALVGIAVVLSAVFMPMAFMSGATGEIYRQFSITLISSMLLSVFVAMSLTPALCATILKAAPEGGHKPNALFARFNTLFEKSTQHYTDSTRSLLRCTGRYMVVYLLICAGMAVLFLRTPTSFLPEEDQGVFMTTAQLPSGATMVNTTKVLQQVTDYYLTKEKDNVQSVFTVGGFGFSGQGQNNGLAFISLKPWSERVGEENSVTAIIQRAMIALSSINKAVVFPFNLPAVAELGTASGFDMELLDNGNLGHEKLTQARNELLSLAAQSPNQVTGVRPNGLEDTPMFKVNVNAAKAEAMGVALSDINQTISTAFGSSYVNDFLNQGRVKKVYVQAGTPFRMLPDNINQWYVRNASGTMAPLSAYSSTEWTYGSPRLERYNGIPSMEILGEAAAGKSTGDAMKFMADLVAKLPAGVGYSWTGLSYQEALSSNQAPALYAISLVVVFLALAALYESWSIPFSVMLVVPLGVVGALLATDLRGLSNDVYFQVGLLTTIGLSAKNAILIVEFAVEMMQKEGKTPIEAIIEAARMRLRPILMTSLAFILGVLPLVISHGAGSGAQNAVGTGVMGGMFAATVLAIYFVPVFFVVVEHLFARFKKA
Description: fluorescence polarisation Kd; thermal stabilisation (CD, DSC, nanoDSF). It counts as binding.

Series [3] concerns the molecule itself. Description: cryo-EM structure.

In general, Kd refers to the equilibrium constant for the complex coming apart. A higher Kd goes with a looser complex. As a reminder, the stoichiometry N is a count of units in the complex or per binding partner.

As to `CC/N=c1\cc2oc3cc(NCC)c(C)cc3c(-c3ccccc3C(=O)OCC)c-2cc1C` [R6G, Rhodamine 6G], the Kd in series [1] came to 390 ± 90 nM; in series [2] it was 720 ± 90 nM.

B1: Escherichia coli multidrug transporter MdtF, wild type (MdtF-6xHis) in SMA lipid particles (natural protein)
chain: T2 sequence (P37637 1-1037 V610F)
notes: also called MdtF^WT; apo-MdtF^WT; source: E. coli C43(DE3) ΔacrAB, extracted from membranes with SMA 2000 into SMALPs, purified (Ni-NTA, SEC)
For the molecule B1, the “stoichiometry N” value in series [3] is 3.

B2: Escherichia coli multidrug transporter MdtF with the single-point mutation V610F (MdtF-6xHis) in SMA lipid particles (natural protein)
chain: T2 sequence (P37637 1-1037 V610F) with V610F
notes: also called MdtF^V610F; apo-MdtF^V610F; source: E. coli C43(DE3) ΔacrAB, extracted from membranes with SMA 2000 into SMALPs, purified (Ni-NTA, SEC)
Regarding B2, in series [3], the binding result was “binds”.
